Source: patent US20070219346A1, “Glucose sensor and uses thereof” (McGill University, priority 2002, published 2007)
“Also recorded” adds a separate entry of the source.

Legend:
[1] = Intrinsic fluorescence spectroscopy of His-tagged glucokinase immobilized on Ni-NTA agarose; format: binding, human; conditions: for change of maximal intrinsic fluorescence in presence of glucose, immobilized protein: 100 mM glucose, Ni-NTA agarose bound
Experimental: FIG. 8 depicts fluorescence spectroscopy analysis of His-tagged glucokinase immobilized on Ni-NTA agarose (QIAGEN). The intrinsic fluorescence intensity spectra were measured in the absence and presence of 100 mM glucose following excitation at 280 nm. The baseline spectrum of immobilized His-tagged glucokinase alone is shown (Ni-NTA-His-GLK, thin line).
Intrinsic fluorescence experiments were performed on purified immobilized wild-type N-terminal His-tagged glucokinase (FIG. 8). […] Next, immobilized His-GLK that had been previously incubated with glucose was washed with glucose-free buffer. […] When the washed Ni^2+-bound His-GLK was incubated with glucose, again an upward shift in the fluorescence intensity occurred, indicative of a recurring conformational change in the protein.

[2] = Impedance biosensing with His-GLK immobilized on Ni2+-NTA screen-printed electrodes; parameters: species or system human; conditions: 100 mM glucose, Ni2+-NTA screen-printed electrode
Experimental: FIG. 9 depicts A) Immobilized-metal affinity chromatography (IMAC). Adjacent histidine residues in His-tagged proteins interact with the Ni^2+-NTA matrix. B-D) Typical Nyquist diagrams obtained for different electrode surface conditions. The imaginary (Zi) and real (Zr) complex impedence elements were calculated by computer following impedence measurements. B) Modification of screen-printed electrode (SPE) with NTA ligand. Nitrilotriacetic acid (NTA) ligand was coupled to the bare SPE electrode surface using 1-ethyl-3-(3-dimethylaminopropyl)-carbodiimide (EDC) activation. C) Immobilization of glucokinase. The SPE was loaded with Ni^2+ cations (Ni2+) and His-tagged wild-type glucokinase (GLK) immobilized on the surface. D) Detection of glucose.
To establish the use of modified re-engineered glucokinase molecules as potential mediators of glucose recognition, experiments were performed using impedance biosensing technology. The initial objectives were to covalently immobilize wild-type glucokinase on two potential electrode substrates: silicon (Si; industry standard), and screen-printed graphite (SP) electrodes [Marquette, C. A. et al., Anal. Chem., 78:959-964 (2006)]. Impedance measurements were used to monitor the changes of glucokinase in the presence of glucose. […]
Each step was analyzed by bioimpedance measurements. […]

[3] = Enzymatic activity of glucokinase immobilized on solid supports or electrode surfaces; format: biochemical, human; conditions: for glucokinase activity while immobilized: on glutathione or Ni2+-containing supports
Experimental: The enzymatic activity of the wild-type GST and His-tagged glucokinases was measured while the proteins were immobilized on glutathione or Ni^2+-containing supports, respectively.
This was not a complete surprise, as the final coupling requires free amino groups of the protein. Most likely there are a significant number of such groups involved, but in the process of participating in the coupling, enzyme function is destroyed.
Each step was analyzed by bioimpedance measurements. First, nitrilotriacetic acid (NTA) ligand (FIG. 9A) was coupled to SP electrode surface using 1-ethyl-3-(3-dimethylaminopropyl)-carbodiimide (EDC) activation (FIG. 9B). Electrodes were then loaded with Ni^2+ cations. Wild-type His-GLK (1 μg) was then avidly coupled to the electrode surface, again corroborated by impedance measurements (FIG. 9C). These prepared electrodes were subsequently used as glucose biosensors.

[4] = Glucokinase activity of purified tagged glucokinases, coupled glucose 6-P dehydrogenase/NADPH assay; format: biochemical, human
Experimental: Glucokinase activity was assayed as described previously [Storer, A. C., et al., Biochem. J. 141:205-209 (1974)] with the following modifications. Reactions were carried out at 25° C. in 50 nM glycylglycinate buffer, pH 7.8, containing 1 mM NADP, 100 mM KCl, 5 mM MgCl2, 1 unit of glucose 6-P dehydrogenase, 100 mM glucose, 5 mM ATP, and glucokinase in a total volume of 1 ml. All reaction mixtures were incubated at 25° C.
Production of NADPH was followed by the increase in absorbance at 340 nm using a spectrophotometer. Glucokinase activity may then be calculated using the following formula: Activity (units/ml)=(Δ OD/min)/0.15×dilution factor
A unit of activity is the amount of glucokinase which transforms, under optimal conditions, 1 μmole of substrate/min at room temperature.
The glucokinase activity of the purified glucokinases was assayed as above.

[5] = Intrinsic fluorescence spectroscopy of His-tagged glucokinase in solution; format: binding, human; conditions: 100 mM glucose, excitation 280 nm
Experimental: FIG. 7 depicts fluorescence spectroscopy analysis of His-tagged glucokinase. The intrinsic fluorescence intensity spectrum of His-tagged wild-type glucokinase was measured following excitation at 280 nm. The baseline spectrum of His-tagged glucokinase alone is shown (His-GLK, thin dashed line).
Intrinsic fluorescence experiments with glucokinase were performed to document and verify glucose-induced conformational changes, which is an absolute requirement for impedance biosensing to be successful. Purified wild-type N-terminal His-tagged glucokinase (10 μg) with enzyme specific activity of ≅200 U/mg was used in a 10×10 mm^2 cuvette. After the addition of 100 mM glucose, intrinsic fluorescence spectroscopy was performed (excitation wavelength 280 nm; maximum fluorescence 312 nm). There is a 20-25% increase in maximal intrinsic fluorescence at 312 nm with the addition of 100 mM glucose, reflective of conformational changes in the His-tagged glucokinase (FIG. 7). This is similar to native wild-type glucokinase [Xu L Z, Zhang W, Weber I T, Harrison R W, Pilkis S J. 1994. Site-directed mutagenesis studies on the determinants of sugar specificity and cooperative behavior of human beta-cell glucokinase. J Biol Chem 269:27458-27465; and Xu L Z, Weber I T, Harrison R W, Gidh-Jain M, Pilkis S J. 1995. […]

Substance | change of maximal intrinsic fluorescence in presence of glucose, immobilized protein [1] | change of maximal intrinsic fluorescence in presence of glucose, immobilized protein ([1]; listed as Ni-NTA-His-GLK) | reversibility of glucose binding ([1]; immobilized, washed with glucose-free buffer) | impedance change in the presence of glucose [2] | impedance change in the presence of glucose ([2]; listed as His-tagged GLK) | glucokinase activity while immobilized [3] | glucokinase activity while immobilized ([3]; listed as His-tagged glucokinase) | glucokinase enzymatic activity ([4]; purified affinity-tagged protein, 100 mM glucose, 5 mM ATP, 25° C.) | enzyme specific activity ([4]; purified wild-type N-terminal His-tagged glucokinase) [U/mg] | increase in maximal intrinsic fluorescence at 312 nm [5] | change of maximum intrinsic fluorescence intensity on glucose addition ([5]; in solution) | enzyme activity after covalent coupling to electrode surface ([3]; nitrobenzenediazoniun/glutaraldehyde coupling)
His-GLK: wild-type human liver glucokinase with N-terminal polyhistidine tag, expressed from pET-15b in E. coli | increase in the maximal intrinsic fluorescence | maximum fluorescence intensity increased | reversible | significant impedance changes | significant shift to the left in the curve | retained glucokinase activity | retained full enzymatic activity | expected enzymatic activity; also recorded: significant glucokinase enzymatic activity | ~200 | 20-25% | increase in the maximum fluorescence intensity | 
glucokinase: human wild-type glucokinase, hexokinase family enzyme binding D-glucose |  |  |  |  |  |  |  |  |  |  |  | total loss of enzyme activity
